Measured values published in patent publication US3963756A, “Derivatives of 6-methyl-2H-pyran-2,4(3H)-dione” (Zaidan Hojin Biseibutsu Kagaku Kenkyu Kai, priority 1972, dated 1976).

How the values were obtained:
Tyrosine Hydroxylase = molecular target: T1, Tyrosine Hydroxylase (Bos taurus, UniProt P17289); experiment: Inhibition of tyrosine hydroxylase (TH); assay type: biochemical; conditions: for inhibition at 100 µg/mL: 100 mcg/cc; for inhibition at 200 µg/mL: 200 mcg/cc
T1 sequence (P17289 1-491): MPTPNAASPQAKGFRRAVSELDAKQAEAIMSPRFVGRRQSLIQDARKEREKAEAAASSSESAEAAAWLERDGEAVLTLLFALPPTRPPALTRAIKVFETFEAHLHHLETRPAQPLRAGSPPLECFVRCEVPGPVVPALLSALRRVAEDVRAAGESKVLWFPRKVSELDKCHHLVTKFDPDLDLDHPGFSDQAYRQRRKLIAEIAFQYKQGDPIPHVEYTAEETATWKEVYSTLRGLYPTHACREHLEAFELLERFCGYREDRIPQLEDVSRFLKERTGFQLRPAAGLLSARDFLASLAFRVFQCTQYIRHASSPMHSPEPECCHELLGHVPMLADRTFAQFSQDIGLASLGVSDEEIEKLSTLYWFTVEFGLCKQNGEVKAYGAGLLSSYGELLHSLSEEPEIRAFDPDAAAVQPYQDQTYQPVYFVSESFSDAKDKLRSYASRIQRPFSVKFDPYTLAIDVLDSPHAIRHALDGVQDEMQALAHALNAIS
Text: (§1) The new compounds of the present invention have been examined for their biological activities, and their inhibition to tyrosine hydroxylase and dopamine β-hydroxylase are summarized below in Table 2. The details of the test methods used and the close relationship and reliable correlation of biological activities between in vitro and in vivo test results are well documented in the literature, e.g. J. Antibiot. 23: 514 (1970); Biochem. Pharmacol., 19: 35 (1970); and J. Am. Chem. Soc. 93: 1285 (1971). […] The effects of this compound on tyrosine hydroxylase and dopamine β-hydroxylase were also tested by the methods described in the Journal of Antibiotics 23:514 (1970) and Biochem. Pharmacol. 19:35 (1970), respectively.
(§2) The chemical structure of the products [I], solvent for hydrogenation and solvent for recrystallization are summarised in Table 1, and the yields of the products [I] are also shown in Table 1 together with their melting points, elemental analysis data, Inhibition (%) of tyrosine hydroxylase (TH) and Inhibition (%) to dopamine β-hydroxylase (DH) at different concentrations of the products [I] of 100 mcg/cc and 200 mcg/cc.

Dopamine β-Hydroxylase = molecular target: T2, Dopamine β-Hydroxylase (Bos taurus, UniProt P15101); experiment: Inhibition of dopamine β-hydroxylase (DH); assay type: biochemical; conditions: 200 mcg/cc
T2 sequence (P15101 1-610): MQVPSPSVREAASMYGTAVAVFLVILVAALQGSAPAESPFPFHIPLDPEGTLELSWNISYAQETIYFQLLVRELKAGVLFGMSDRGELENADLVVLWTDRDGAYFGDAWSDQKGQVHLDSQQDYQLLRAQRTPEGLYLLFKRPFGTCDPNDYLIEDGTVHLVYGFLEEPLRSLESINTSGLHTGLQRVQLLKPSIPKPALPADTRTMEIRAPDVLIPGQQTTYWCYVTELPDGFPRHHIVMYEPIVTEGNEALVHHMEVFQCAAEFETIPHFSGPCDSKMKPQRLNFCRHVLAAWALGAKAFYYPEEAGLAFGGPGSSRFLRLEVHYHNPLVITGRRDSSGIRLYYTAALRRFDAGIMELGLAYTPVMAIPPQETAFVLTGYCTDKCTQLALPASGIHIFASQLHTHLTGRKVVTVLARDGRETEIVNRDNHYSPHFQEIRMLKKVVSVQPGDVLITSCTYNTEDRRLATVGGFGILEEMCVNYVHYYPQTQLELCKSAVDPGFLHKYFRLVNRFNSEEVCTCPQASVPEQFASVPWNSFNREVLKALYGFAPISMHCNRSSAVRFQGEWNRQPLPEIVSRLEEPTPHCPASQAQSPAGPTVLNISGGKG
Text: as §1, §2

[1] = Lowering of blood pressure (general statements); set-up: species or system mammals; conditions: in vivo

inhibition at 100 µg/mL (Tyrosine Hydroxylase) [%]	inhibition at 200 µg/mL (Dopamine β-Hydroxylase) [%]	inhibition at 200 µg/mL (Tyrosine Hydroxylase) [%]	SMILES	blood pressure reducing (hypotensive) activity, in words [1]
39	74.7		COc1cccc(CCC(=O)C2C(=O)C=C(C)OC2=O)c1OC (stereo not shown) [Example 21]	
53.6	82.3	69.3	CC1=CC(=O)C(C(=O)CCc2cc(Cl)cc(Cl)c2O)C(=O)O1 (stereo not shown) [Example 34]	
13	54.9	15	COC(=O)c1ccc(CCC(=O)C2C(=O)C=C(C)OC2=O)cc1 (stereo not shown) [Example 14, 3-(4-methoxycarbonylhydrocinnamoyl)-6-methyl-2H-pyran-2,4(3H)-dione]	
29.8	100	29.1	CC1=CC(=O)C(C(=O)CCc2ccc(Cl)cc2Cl)C(=O)O1 (stereo not shown) [Example 28]	
60.1	42		CC1=CC(=O)C(C(=O)CCc2ccc(F)cc2)C(=O)O1 (stereo not shown) [Example 31]	
34.8	56.2		CC1=CC(=O)C(C(=O)CCc2cccc3ccccc23)C(=O)O1 (stereo not shown) [Example 36]	
81.4	77.5	84.5	CC1=CC(=O)C(C(=O)CCc2ccc(C#N)cc2)C(=O)O1 (stereo not shown) [Example 8]	
23.5	100		CC1=CC(=O)C(C(=O)CCc2ccc(C)o2)C(=O)O1 (stereo not shown) [Example 30]	
20	44.9	26	COc1ccc(CCC(=O)C2C(=O)C=C(C)OC2=O)c(OC)c1 (stereo not shown) [Example 27]	
52.3	30.3		CC1=CC(=O)C(C(=O)CCc2cccs2)C(=O)O1 (stereo not shown) [Example 38]	
13.7	86.7	18.5	CC1=CC(=O)C(C(=O)CCc2ccc3c(c2)OCO3)C(=O)O1 (stereo not shown) [Example 3, 3-(3,4-methylenedioxyhydrocinnamoyl)-6-methyl-2H-pyran-2,4(3H)-dione]	
32	83.5	34.9	COc1cccc(CCC(=O)C2C(=O)C=C(C)OC2=O)c1 (stereo not shown) [Example 25]	
30.9	25.1		CC1=CC(=O)C(C(=O)CCc2ccc[nH]2)C(=O)O1 (stereo not shown) [Example 39]	
41.8	44.7	57.2	CC1=CC(=O)C(C(=O)CCc2c(O)ccc3ccccc23)C(=O)O1 (stereo not shown) [Example 37]	
16.8	94.5	25.5	CC1=CC(=O)C(C(=O)CCc2ccc(C(C)C)cc2)C(=O)O1 (stereo not shown) [Example 20]	
50.4	88		CC1=CC(=O)C(C(=O)CCc2ccc(C(F)(F)F)cc2)C(=O)O1 (stereo not shown) [Example 32]	
54.6	90.4	61	CC1=CC(=O)C(C(=O)CCc2ccc(Cl)c(Cl)c2)C(=O)O1 (stereo not shown) [Example 6]	
22.7	61.5	24.4	CCOc1cc(CCC(=O)C2C(=O)C=C(C)OC2=O)ccc1O (stereo not shown) [Example 22]	
33.7	85.8		CC1=CC(=O)C(C(=O)CCCCc2ccccc2)C(=O)O1 (stereo not shown) [Example 12]	
37.1	89.8	48.4	CC1=CC(=O)C(C(=O)CCc2ccccc2Cl)C(=O)O1 (stereo not shown) [Example 17]	

inhibition at 100 µg/mL (Tyrosine Hydroxylase) [%]	inhibition at 200 µg/mL (Dopamine β-Hydroxylase) [%]	inhibition at 200 µg/mL (Tyrosine Hydroxylase) [%]	SMILES	blood pressure reducing (hypotensive) activity, in words [1]
44.4	52.5	59.5	CC1=CC(=O)C(C(=O)CCc2ccccc2O)C(=O)O1 (stereo not shown) [Example 13]	
40.7	35	47.9	COc1ccc(CCC(=O)C2C(=O)C=C(C)OC2=O)cc1 (stereo not shown) [Example 1, 3-(4-methoxyhydrocinnamoyl)-6-methyl-2H-pyran-2,4(3H)-dione]	
20.5	30.3		CC1=CC(=O)C(C(=O)CCc2ccc(C(N)=O)cc2)C(=O)O1 (stereo not shown) [Example 33]	
64.7	81.7	67.2	CC1=CC(=O)C(C(=O)CCc2cccc(O)c2)C(=O)O1 (stereo not shown) [Example 4]	
14.6	29.6	26	COc1cc(CCC(=O)C2C(=O)C=C(C)OC2=O)ccc1O (stereo not shown) [Example 19]	
65.2	77.7	70.6	CC1=CC(=O)C(C(=O)CCc2ccc(O)cc2)C(=O)O1 (stereo not shown) [Example 7]	
12.7	95	26.5	CC1=CC(=O)C(C(=O)CCc2cccc(Cl)c2)C(=O)O1 (stereo not shown) [Example 10]	
20.9		29.9	COc1cccc(CCC(=O)C2C(=O)C=C(C)OC2=O)c1O (stereo not shown) [Example 15]	
	6	10.1	CCOc1ccc(CCC(=O)C2C(=O)C=C(C)OC2=O)cc1 (stereo not shown) [Example 11]	
80.8	67	93.9	COc1ccc(CCC(=O)C2C(=O)C=C(C)OC2=O)cc1O (stereo not shown) [Example 2, 3-(3-hydroxy-4-methoxyhydrocinnamoyl)-6-methyl-2H-pyran-2,4(3H)-dione]	
61.3	32.5	72.5	COc1ccc(CCC(=O)C2C(=O)C=C(C)OC2=O)cc1OC (stereo not shown) [3-(3,4-dimethoxyhydrocinnamoyl)-6-methyl-2H-pyran-2,4(3H)-dione, reference compound]	active in reducing blood pressure
80.6	20.6	93.5	CC1=CC(=O)C(C(=O)CCc2ccc(O)c(O)c2)C(=O)O1 (stereo not shown) [Example 9]	
66	84.4	64.8	CC1=CC(=O)C(C(=O)CCc2ccc(Cl)cc2)C(=O)O1 (stereo not shown) [Example 5]	
23		26.1	CC1=CC(=O)C(C(=O)CCc2ccc(N(C)C)cc2)C(=O)O1 (stereo not shown) [Example 16]	
52.5	85	52.6	CC1=CC(=O)C(C(=O)CCc2ccc(C)cc2)C(=O)O1 (stereo not shown) [Example 29, 3-(4-methylhydrocinnamoyl)-6-methyl-2H-pyran-2,4(3H)-dione]	
8.7	28.9		CC1=CC(=O)C(C(=O)CCc2c(C)cc(C)cc2C)C(=O)O1 (stereo not shown) [Example 23]	
11.3	97	19.8	CC1=CC(=O)C(C(=O)CCc2cccc(Br)c2)C(=O)O1 (stereo not shown) [Example 26]	
44.7	60.3	45.5	CC1=CC(=O)C(C(=O)CCc2ccco2)C(=O)O1 (stereo not shown) [Example 24, 3-[3-(2-furyl)propanoyl]-6-methyl-2H-pyran-2,4(3H)-dione]	
45.8	43.6		COc1cc(CCC(=O)C2C(=O)C=C(C)OC2=O)cc(OC)c1O (stereo not shown) [Example 35]	

SMILES	inhibition at 100 µg/mL (Tyrosine Hydroxylase) [%]	inhibition at 200 µg/mL (Dopamine β-Hydroxylase) [%]	inhibition at 200 µg/mL (Tyrosine Hydroxylase) [%]	blood pressure reducing (hypotensive) activity, in words [1]
COc1ccccc1CCC(=O)C1C(=O)C=C(C)OC1=O (stereo not shown) [Example 18]	32	98.3		
